Laboratory results published in patent US20200016088A1, “NANOFORMULATIONS OF NEUROPEPTIDES AND METHOD OF MAKING SAME” (THE CORPORATION OF MERCER UNIVERSITY, priority 2018, published 2020).
Blank lines part the entries; values can stand above or below the molecule they belong to.

What was measured:
[1] = test system: BEND3 cells; assay: BBB transport across BEND3 cell barrier in Ussing chamber; type: in vitro ADME, mouse; settings: 1, 2, 3 and 4 hours
Text: To generate a cellular model of the BBB, BEND3 cells were obtained from American Type Culture Collection (ATCC: 2299). BEND3 cells are endothelial cells that form tight barriers through the formation of transcellular tight junctions (Montesano et al. 1990; Sikorski et al. 1993; Williams et al. 1988), and these barriers mimic the barrier properties of the BBB (He et al. 2010; Watanabe et al. 2013). Their endothelial nature has been confirmed by the expression of von Willebrand factor and the uptake of fluorescently labeled low density lipoprotein. BEND3 cells were cultured in Dulbecco's Modified Eagle Medium (DMEM) supplemented with 15% FBS and 1% (100 U/ml Penicillin and 100 μg/ml Streptomycin). […]
To study the transport of nanoparticle formulations across the BEND3 BBB model barrier, a complete Ussing chamber system with a multichannel voltage-current clamp and the EasyMount Ussing chambers (Model VCC MC8; P2300; Physiologic Instruments Inc.; San Diego, Calif.) was used. […] To subtract the background resistance, a blank cell-culture insert was placed onto the slider and used to compensate for any fluid or blank membrane resistance by dialing off any reading to zero. […] Before the start of the experiment, all cell barrier preparations were evaluated for resistance properties and current flow using the acquire and analyze software. […]

[2] = in vivo; cited from earlier work
[3] = OT in CSF and plasma by ELISA after intranasal administration; type: in vivo, Swiss-Webster mice; settings: 2 hours after intranasal administration, 50 ug OT
[4] = within one hour of intranasal delivery (Leng and Ludwig 2016); cited from earlier work
[5] = test system: macrophage (RAW 246.7) cell line; assay: Cytotoxicity by MTT assay; type: cell-based; settings: relative to negative control
Text: (See Examples 10 through 16 hereinbelow). As confirmed in past research, the nanoparticle formulations have shown to be both safe and non-toxic in non-human primates. In primates, all parameters related to liver toxicity (such as SGOT, SGPT) and kidney toxicity (such as serum creatinine, […]) were normal after repeated nanoparticulate administrations when compared to the control group. […] For confirmation of a potential innate inflammatory response, nitric oxide assays are an important tool. For the assay, dendritic cells are plated in a well plate and exposed to the formulation. After 16 hours, using reagents, a stronger color change indicates a higher production of nitric oxide by these antigen-presenting cells in response to the formulation's antigenicity. […] This indicates minimal if not negligible immunogenicity of the formulation. […] Likewise, cytotoxicity of blank nanoparticles was assessed by MTT (3-(4,5-Dimethylthiazol-2-yl)-2,5-diphenyltetrazolium bromide) assay in a macrophage (RAW 246.7) cell line.
The cytotoxicity of blank and peptide loaded nanoparticles was assessed by the MTT (3-(4,5-Dimethylthiazol-2-yl)-2,5-diphenyltetrazolium bromide) assay. […] Absorbance in each well was measured at 570 nm in a microtiter plate reader. The formation of a colored product quantified by measuring absorbance can be correlated to the percentage of living cells.

transport across the barrier, presence versus absence of the cell barrier [1]: significant reduction
Molecule: Cc1cc(-c2ccc(/N=N/c3c(S(=O)(=O)O)cc4cc(S(=O)(=O)O)cc(N)c4c3O)c(C)c2)ccc1/N=N/c1c(S(=O)(=O)O)cc2cc(S(=O)(=O)O)cc(N)c2c1O [trypan blue]

proportion of OT in CSF versus the total in CSF plus plasma [3]: 4.2%
Molecule: CC[C@H](C)[C@@H]1NC(=O)[C@H](Cc2ccc(O)cc2)NC(=O)[C@@H](N)CSSC[C@@H](C(=O)N2CCC[C@H]2C(=O)N[C@@H](CC(C)C)C(=O)NCC(N)=O)NC(=O)[C@H](CC(N)=O)NC(=O)[C@H](CCC(N)=O)NC1=O [OT, oxytocin]
half-life in the blood [2]: on the order of minutes
calculated maximum transfer of a dose to the brain [4]: 0.005%

Molecule: benzalkonium chloride
cell viability ([5]; after 24 hours): 21.44%
cell viability ([5]; after 48 hours): 20.089%
